According to patent EP1222194B1, “7-ACYLAMINO-3-HETEROARYLTHIO-3-CEPHEM CARBOXYLIC ACID ANTIBIOTICS AND PRODRUGS THEREOF” (priority 1999, dated 2001):

What was measured:
[1] = Serum binding determination by ultrafiltration and HPLC; assay type: in vitro ADME; conditions: % of compound bound to serum as determined by HPLC
Description: (§1) The more accurate measurement of binding of selected cephalosporin compounds was performed using HPLC as described below. […] Serum is placed in a shaking water bath preheated to 37 ± 2 °C for 5 to 10 minutes to heat serum to 37 °C. Serum pH is measured and recorded, while serum is 37 °C using pH paper. Measurements are taken twice, 3 minutes apart. If the pH is not 7.4 ± 0.4 then the pH is adjusted by blowing 5% CO2/95% O2 over the serum. After blowing for several minutes, serum is heated to 37 °C and measurements are taken twice, 3 minutes apart using pH paper to determine the pH. Store at 4 °C. The serum is stable for 7 days. Always check the pH before each use. • 2. Before any centrifugation, the centrifuge temperature must be adjusted to 25 ± 2 °C. Preheat the centrifuge by spinning for 45 minutes at the same speed to be used in the assay (1900 g) with two tubes of water in the rotor and the temperature set to 25 °C. When the centrifuge stops immediately check the temperature of the tubes of water with a calibrated thermometer. The temperature of the tubes of water must be 25 ± 2 °C. […] Continue spinning and measuring the temperature and adjusting the setting until the temperature is 25 ± 2 °C. • 3. Prepare blank ultrafiltrate by pipetting blank pH 7.4 serum into an Amicon Centrifree Micropartition devices, centrifuge: fixed angle rotor, 1900 g, 25 °C for 20 minutes. Heat ultrafiltrate in a shaking water bath preheated to 37 °C. Measure ultrafiltrate pH and adjust to the pH of the serum (7.4 ± 0.2). • 4. Pipette 190 ul of blank ultrafiltrate into a set of labeled 1.7 mL polypropylene microfuge tubes for 3 of each level. Pipette 10 µL of the appropriate standard stock 50, 200, 1000 µg/mL to make standards 2.5, 10, and 50 µg/mL respectively. Vortex each tube well. One set of the standard samples are mixed 1:1 with 0.2 M acetic acid and injected onto the HPLC (MSTD). These samples are the membrane standards and will be used to compare to the other standards. Pipette 190 ul of ultrafiltrate and spike with 10 ul of whatever solution (e.g. water) the standards are prepared in to make the zero standard. • 5. Pipette 475 µL of blank heated pH 7.4 serum into a set of labeled 1.7 mL polypropylene microfuge tubes for 2 of each (Serum A and Serum B). Pipette 25 µL of the 1000 µg/mL standard stock into each tube, vortex each tube well to make serum standard 50 µg/mL. Remove 100 µL of serum and deproteinate with 200 µL 4% TCA while vortexing to make serum time 0 (serum 50, T0). Place serum tubes in a shaking water bath at 37 °C for 10 minutes. Pipet 100 µL of serum out and deproteinate with 200 µL 4% TCA, to make serum time 10 min (serum 50, T10). Pipet 200 ul serum standard 50 µg/mL into an ultrafiltration device, which is not treated with TCA, to determine free drug in samples (Rat Serum 50). • 6. Transfer serum and standard samples to labeled Amicon Centrifree Micropartition filters, and centrifuge: 1900 g, 25 °C for 10 minutes. The extracted serum samples (T0 and T 10) are spun down and supernatant is loaded into HPLC vials. • 7. 100 µL of ultrafiltrate sample and 100 µL of 0.2 M acetic acid were mixed together to stabilize the compound in ultrafiltrate. • 8. Transfer entire stabilized ultrafiltrate solution to a labeled autoinjector HPLC vial cap with Teflon septa, and inject on HPLC.
(§2) Peak height or area is used in a weighted linear regression.

[2] = as above; assay type: in vitro ADME; conditions: human, serum, % of compound bound to serum as determined by HPLC
Description: as §1, with “If the pH is not 7.4 ± 0.4 then the pH is adjusted by blowing 5% CO2/95% O2 over the serum.” left out
as §2
High levels of binding to human serum proteins limits the concentration of compound available for antibacterial activity in the body.

Row | Structure (SMILES) | fraction unbound ([1]; rat serum) | fraction unbound ([1]; rhesus monkey) | fraction unbound [2]
1 | N=C(N)NCCSCc1ncccc1SC1=C(C(=O)O)N2C(=O)[C@@H](NC(=O)/C(=N\O)c3nc(N)sc3Cl)[C@H]2SC1 [Cmpd 2-S, (7R)-7-[(Z)-2-(2-amino-5-chlorothiazol-4-yl)-2-(hydroxyimino)acetamido]-3-[2-(2-guanidinoethylthiomethyl)pyrid-3-ylthio]-3-cephem-4-carboxylic acid] | 0.24 | 0.12 | 0.17
2 | NCCSCc1ncccc1SC1=C(C(=O)O)N2C(=O)[C@@H](NC(=O)/C(=N\O)c3nc(N)sc3Cl)[C@H]2SC1 [Cmpd 1, (7R)-7-[(Z)-2-(2-amino-5-chlorothiazol-4-yl)-2-(hydroxyimino)acetamido]-3-[2-(2-aminoethylthiomethyl)pyrid-3-ylthio]-3-cephem-4-carboxylic acid] | 0.15 |  | 0.1
3 | NCCSCc1ncccc1SC1=C(C(=O)O)N2C(=O)[C@@H](NC(=O)/C(=N\O)c3nsc(N)n3)[C@H]2SC1 [Cmpd 2, (7R)-7-[(Z)-2-(5-amino-1,2,4-thiadiazol-3-yl)-2-(hydroxyimino)acetamido]-3-[2-(2-aminoethylthiomethyl)pyrid-3-ylthio]-3-cephem-4-carboxylic acid] | 0.26 | 0.19 | ≥ 0.2
4 | NCCSCc1ccncc1SC1=C(C(=O)O)N2C(=O)[C@@H](NC(=O)/C(=N\O)c3nc(N)sc3Cl)[C@H]2SC1 [Cmpd 3, (7R)-7-[(Z)-2-(2-amino-5-chlorothiazol-4-yl)-2-(hydroxyimino)acetamido]-3-[4-(2-aminoethylthiomethyl)pyrid-3-ylthio]-3-cephem-4-carboxylic acid] | 0.03 | 0.03 | 0.1
5 | N=C(N)NCCSCc1ncccc1SC1=C(C(=O)O)N2C(=O)[C@@H](NC(=O)/C(=N\O)c3nsc(N)n3)[C@H]2SC1 [Cmpd 2-R, (7R)-7-[(Z)-2-(5-amino-1,2,4-thiadiazol-3-yl)-2-(hydroxyimino)acetamido]-3-[2-(2-guanidinoethylthiomethyl)pyrid-3-ylthio]-3-cephem-4-carboxylic acid] |  |  | ≥ 0.2
